pEC50: −log10 of the molar value. Counter-ions that a name gives are not always drawn.
Tests used:
[1] = test system: IL-23 (p19/p40); experiment: IL23-p19 ELISA, dendritic cells (DC differentiated from human PBMC, IFNγ primed), LPS stimulated; type: cell-based; conditions: Dendritic cell, human PBMC-derived dendritic cells, 1 h compound pre-incubation, LPS 1 μg/ml 18 hours, 10 pt
Procedure: Compound Screening Using DC Cells
I. Differentiation of PBMC's to DC Cells:
After 2 hours, the media including floating cells was aspirated out carefully and 12 ml of fresh RPMI media (10% FBS) containing GMCSF (100 ng/ml) and IL4 (20 ng/ml) was added, and the flask was kept in a 37° C. incubator for 7 days.
After 3 days, fresh GMCSF (100 ng/ml) and IL4 (20 ng/ml) were added to the flask and the incubation continued. After 7 days, the fully differentiated cells were harvested by spinning down (1200 rpm/5 min) and aspirating the media. The cells were suspended in fresh RPMI media (10% FBS) containing 50 ng/ml IFNγ (1000 U/ml) and then plated (50K/well in 100 μl) onto a white clear bottom 96 well plate and left in a 37° C. incubator for 24 hours.
II. Addition of Compounds:
After 24 hours incubation, 100 μl of RPMI media was added containing 2× concentrated test compound per well to the above cell-culture media (final concentration becomes 1×) and the plates were pre-incubated for 1 hour at 37° C. before stimulating with LPS.
The mixture was shaken and incubated the plates at 37° C. for an additional 18 hours.
155 μl of the supernatant was harvested from each well carefully (without the tip touching the bottom of the well) and to the remaining 50 μl/well of the cell culture plate was added 50 μl of Cell Titer Glo reagent. The mixture was incubated for 1-2 minutes on a shaker and the plate was read for luminescence intensity to determine the compound cytotoxicity. The cell culture supernatant collected above was used to carry out IL23 ELISA (65 μl—Supernatant) and IL10 ELISA (90 μl—Supernatant) as described below.
Human IL-23 (p19/p40) ELISA Protocol (e-Biosciences)
To 10.5 ml PBS add 50 μl of anti-IL23 (p19) was added capture antibody (2.5 μg/ml). The mixture was mixed well and 100 μl of the coating solution was added to each well of the 96 well white plates from Pierce. The wells were covered and incubated overnight at 4° C.
The anti-IL23 (p19)-antibody-coated plates were washed 2× using TBST (use plate washer) and blocked using 200 μl of 0.5% Casein for 1.5-2 hours at room temperature with shaking.
Addition of Supernatant and Detection:
The plates were washed 2× using TBST and the supernatant was transferred (65 μl/well) to the above pre-blocked/IL23(p19)-antibody-coated 96 well plate, and incubated at room temperature for 1.5 hours with shaking.
The plates were washed 4× using TBST (plate washer) and 100 μl/well detection antibody solution prepared from 2 μl of biotin labeled anti-IL-12 (p40/p70) antibody in 11 ml 1% BSA/PBS solution (1-5000 dilution) was added. The plates were incubated for 1 hour with shaking at Room temperature.
Again, the plates were washed 4× with TBST and 100 μl of HRP labeled Streptavidin (R&D Systems) solution (10 μl/10 ml 1% BSA solution) was added, and the plates were incubated at room temperature for another 45 minutes with shaking.
After 45 minutes, the plates were washed with TBST 4× and 100 μl/well Super Signal ELISA Pico Chemiluminescent Substrate from Pierce (3.5 ml A+3.5 ml B+3.5 ml MQ water) was added. The plates were shaken for 1-2 minutes then read on a plate reader.

[2] = test system: IL-23p19; experiment: LPS Induced IL23p19 in THP-1 Cells (with IFNγ Primed) Assay; type: cell-based, human; conditions: Homo sapiens, THP-1, THP-1 cells, IFNγ (50 ng/mL) primed, 1 hour compound pre-incubation, LPS 1 ug/mL 18 hours, 10 pt; read-out: IL23-p19 ELISA, THP1-IFNy, LPS, 10 pt EC50
Procedure: LPS Induced IL23p19 in THP-1 Cells (with IFNγ Primed) Assay
Method THP-1 Cells Stimulation:
On day 1, 50K/well THP-1 cells were seeded and primed with IFNγ (50 ng/mL) in 384-well plates for about 18 hours in RPMI media with 10% FBS. […] 50 μL/well 2× compound was added to 50 μL/well THP-1 cells (with IFNγ primed) in duplicate in 384 well tissue culture plates. […] Day 3, after stimulation for 18 hours at 37° C., 5% CO2, the assay plate was centrifuged and 70 μL/well supernatant was harvested. IL-23p19 protein in 70 μL/well of supernatant was measured by sandwich ELISA, and 25 μl/well Cell Titer Glo reagent was added to the remaining cells to measure compound toxicity.
Human IL-23p19 Sandwich ELISA:
Maxisorp immuno ELISA plates were pre-coated with 25 μL/well of anti-IL-23p19 capture antibody (2.5 ug/mL) in PBS overnight at room temperature. After washing with 1×PBST, the plates were blocked using 100 μL/well of 1% BSA in PBS for 2 hours at room temperature. The plates were washed three times with 1×PBST and 70 μL/well supernatant were added. The plates were incubated at room temperature for 2 hours with shaking and washed three times with 1×PBST. 25 μL/well of biotin labeled anti-IL-12(p40/p70) detection antibody (100 ng/mL) in PBS with 1% BSA was added and the plates were incubated at room temperature for 2 hours with shaking. After washing three times with 1×PBST, 25 μL/well of streptavidin-HRP (1:200) in PBS with 1% BSA was added and the plates were incubated at room temperature for 20 minutes with shaking. The plates were washed three times with 1×PBST and 25 μL/well of Super Signal ELISA Pico Chemiluminescent Substrate were added. The plates were read with a luminometer, and the chemiluminescence values were entered into Athena (Rigel) for curve fitting, EC50 calculation, and database storage.

| Structure (SMILES) | pEC50 [1] | pEC50 [2] |
| --- | --- | --- |
| COc1ccc(-c2nn(C)cc2NC(=O)c2cccc(-c3cn[nH]c3)n2)nc1 [Compound I-68, N-(3-(5-methoxypyridin-2-yl)-1-methyl-1H-pyrazol-4-yl)-6-(1H-pyrazol-4-yl)picolinamide] | 5.62 | 6.54 |
| COCCOCCn1cc(NC(=O)c2cccc(Nc3ccc4[nH]ncc4c3)n2)c(-c2ccccn2)n1 [Compound I-154, 6-((1H-indazol-5-yl)amino)-N-(1-(2-(2-methoxyethoxy)ethyl)-3-(pyridin-2-yl)-1H-pyrazol-4-yl)picolinamide formate] | 5.19 | 5.31 |
| Cn1cc(NC(=O)c2cccc(-c3cncc(NS(C)(=O)=O)c3)n2)c(-c2ccccn2)n1 [Compound I-34, N-(1-methyl-3-(pyridin-2-yl)-1H-pyrazol-4-yl)-5′-(methylsulfonamido)-[2,3′-bipyridine]-6-carboxamide] | 4.79 | 4.14 |
| COCCOCCn1cc(NC(=O)c2cccc(-c3ccc(N)nc3)n2)c(-c2ccccn2)n1 [Compound I-142, 6′-amino-N-(1-(2-(2-methoxyethoxy)ethyl)-3-(pyridin-2-yl)-1H-pyrazol-4-yl)-[2,3′-bipyridine]-6-carboxamide formate] | 5.59 | 6.12 |
| COCCOCCn1cc(NC(=O)c2cccc(Oc3ccnc(N)c3)n2)c(-c2ccccn2)n1 [Compound I-156, 6-((2-aminopyridin-4-yl)oxy)-N-(1-(2-(2-methoxyethoxy)ethyl)-3-(pyridin-2-yl)-1H-pyrazol-4-yl)picolinamide formate] | 5.56 | 4.67 |
| COCCOCCn1cc(NC(=O)c2cccc(-c3ccco3)n2)c(-c2ccccn2)n1 [Compound I-152, 6-(furan-2-yl)-N-(1-(2-(2-methoxyethoxy)ethyl)-3-(pyridin-2-yl)-1H-pyrazol-4-yl)picolinamide 2,2,2-trifluoroacetate] | 4.85 | 4.91 |
| Cc1cncc(-c2cccc(C(=O)Nc3cn(C4COC4)nc3-c3ccccn3)n2)c1 [Compound I-114, 5′-methyl-N-(1-(oxetan-3-yl)-3-(pyridin-2-yl)-1H-pyrazol-4-yl)-[2,3′-bipyridine]-6-carboxamide] | 5.63 | 5.75 |
| O=C(Nc1cn(C2CCOCC2)nc1-c1ccccn1)c1cccc(-c2cc[nH]n2)n1 [Compound I-166, 6-(1H-pyrazol-3-yl)-N-(3-(pyridin-2-yl)-1-(tetrahydro-2H-pyran-4-yl)-1H-pyrazol-4-yl)picolinamide] | 7.15 | 5.96 |
| COCCOCCn1cc(NC(=O)c2cccc(-c3cc[nH]n3)n2)c(-c2ccccn2)n1 [Compound I-150, N-(1-(2-(2-methoxyethoxy)ethyl)-3-(pyridin-2-yl)-1H-pyrazol-4-yl)-6-(1H-pyrazol-3-yl)picolinamide formate] | 7.18 | 5.47 |
| COCCOCCn1cc(NC(=O)c2cccc(-c3ccnc(C)c3)n2)c(-c2ccccn2)n1 [Compound I-146, N-(1-(2-(2-methoxyethoxy)ethyl)-3-(pyridin-2-yl)-1H-pyrazol-4-yl)-2′-methyl-[2,4′-bipyridine]-6-carboxamide formate] | 5.23 | 5.37 |
| Cn1cc(-c2cccc(C(=O)Nc3cn(C)nc3-c3ccccn3)n2)cn1 [Compound I-8, 6-(1-methyl-1H-pyrazol-4-yl)-N-(1-methyl-3-(pyridin-2-yl)-1H-pyrazol-4-yl)picolinamide] | 5.62 | 5.77 |
| COc1ccc(-c2cccc(C(=O)Nc3cn(C)nc3-c3ccccn3)n2)cc1 [Compound I-52, 6-(4-methoxyphenyl)-N-(1-methyl-3-(pyridin-2-yl)-1H-pyrazol-4-yl)picolinamide] | 5.95 | 5.35 |
| Cn1cc(NC(=O)c2ccnc(-c3cn[nH]c3)n2)c(-c2ccccn2)n1 [Compound I-137, N-(1-methyl-3-(pyridin-2-yl)-1H-pyrazol-4-yl)-2-(1H-pyrazol-4-yl)pyrimidine-4-carboxamide] | 5.30 | 5.40 |
| Cc1cc(-c2cccc(C(=O)Nc3cn(C)nc3-c3ccccn3)n2)[nH]n1 [Compound I-7, 6-(3-methyl-1H-pyrazol-5-yl)-N-(1-methyl-3-(pyridin-2-yl)-1H-pyrazol-4-yl)picolinamide] | 6.45 | 6.27 |
| Cn1cc(NC(=O)c2cccc(-c3cncc(C(N)=O)c3)n2)c(-c2ccccn2)n1 [Compound I-40, N6-(1-methyl-3-(pyridin-2-yl)-1H-pyrazol-4-yl)-[2,3′-bipyridine]-5′,6-dicarboxamide] | 5.52 |  |
| Cn1cc(NC(=O)c2nccc(-c3cn[nH]c3)n2)c(-c2ccccn2)n1 [Compound I-124, N-(1-methyl-3-(pyridin-2-yl)-1H-pyrazol-4-yl)-4-(1H-pyrazol-4-yl)pyrimidine-2-carboxamide] | 5.81 | 5.18 |
| Cn1cc(NC(=O)c2cccc(-c3ccccc3)n2)c(-c2ccccn2)n1 [Compound I-48, N-(1-methyl-3-(pyridin-2-yl)-1H-pyrazol-4-yl)-6-phenylpicolinamide] | 5.04 |  |
| Cn1cc(NC(=O)c2cccc(-c3cc[nH]n3)n2)c(-c2ccc(N3CCOCC3)cn2)n1 [Compound I-172, N-(1-methyl-3-(5-morpholinopyridin-2-yl)-1H-pyrazol-4-yl)-6-(1H-pyrazol-3-yl)picolinamide] | 7.33 |  |
| COCCNc1cncc(-c2cccc(C(=O)Nc3cn(C)nc3-c3ccccn3)n2)c1 [Compound I-31, 5′-((2-methoxyethyl)amino)-N-(1-methyl-3-(pyridin-2-yl)-1H-pyrazol-4-yl)-[2,3′-bipyridine]-6-carboxamide] | 6.38 |  |
| CC(C)Oc1cncc(-c2cccc(C(=O)Nc3cn(C)nc3-c3ccccn3)n2)c1 [Compound I-22, 5′-isopropoxy-N-(1-methyl-3-(pyridin-2-yl)-1H-pyrazol-4-yl)-[2,3′-bipyridine]-6-carboxamide] | 5.07 |  |
| COCCOCCn1cc(NC(=O)c2cccc(Nc3cc(C)ncc3C)n2)c(-c2ccccn2)n1 [Compound I-157, 6-((2,5-dimethylpyridin-4-yl)amino)-N-(1-(2-(2-methoxyethoxy)ethyl)-3-(pyridin-2-yl)-1H-pyrazol-4-yl)picolinamide formate] | 4.96 |  |
| O=C(Nc1cn(C2CCOCC2)nc1-c1ccccn1)c1cccc(-c2ccncc2)n1 [Compound I-167, N-(3-(pyridin-2-yl)-1-(tetrahydro-2H-pyran-4-yl)-1H-pyrazol-4-yl)-[2,4′-bipyridine]-6-carboxamide] | 5.19 |  |
